Here are results for six molecules from patent publication US10875860B2, “Azaindenoisoquinoline compounds and uses thereof” (Purdue Research Foundation, priority 2016, dated 2020).

Usually GI50 stands for the concentration giving 50% growth inhibition. As a reminder, the melting point is the temperature of the solid-liquid transition. One may read the IC50 as the concentration that inhibits the measured activity by half.

The subject of one data set is DU-145. Put plainly: NCI-60 cytotoxicity, DU-145. In kind it is cell-based. As to conditions: Homo sapiens, single determinations, Table 2, read-out: Cytotoxicity (GI50) Prostate DU-145.
The test system of a further data set is UACC-62. The data set is described as follows: NCI-60 cytotoxicity, UACC-62. The following applies: Homo sapiens, UACC-62, read-out: Cytotoxicity (GI50) Melanoma UACC-62.
Another data set relates to MCF-7. Put plainly: NCI-60 cytotoxicity, MCF-7. As to conditions: Homo sapiens, MCF7, read-out: Cytotoxicity (GI50) Breast MCF-7.
For data set [1], the system named is NCI-60 panel of human cancer cell lines. Put plainly: NCI-60 screen, mean graph midpoint over all cell lines. The following applies: Homo sapiens, read-out: Cytotoxicity (GI50) MGM.
For another data set, the system named is SN12C. Put plainly: NCI-60 cytotoxicity, SN12C. The following applies: Homo sapiens, read-out: Cytotoxicity (GI50) Renal SN12C.
The next data set addresses Tdp1 (Homo sapiens, UniProt Q9NUW8). Put plainly: Recombinant Tdp1 assay. In kind it is biochemical. The following applies: determined in duplicate; Table 2; read-out: Enzyme Inhibitory Activity Tdp1 (IC50).
The test system of another data set is HCT-116. The data set is described as follows: NCI-60 cytotoxicity, HCT-116. Format: cell-based. As to conditions: Homo sapiens, single determinations, Table 2, read-out: Cytotoxicity (GI50) Colon HCT-116.
In another data set the target is T1, recombinant human TDP2 (Homo sapiens, UniProt O95551).
T1 sequence (O95551 1-362): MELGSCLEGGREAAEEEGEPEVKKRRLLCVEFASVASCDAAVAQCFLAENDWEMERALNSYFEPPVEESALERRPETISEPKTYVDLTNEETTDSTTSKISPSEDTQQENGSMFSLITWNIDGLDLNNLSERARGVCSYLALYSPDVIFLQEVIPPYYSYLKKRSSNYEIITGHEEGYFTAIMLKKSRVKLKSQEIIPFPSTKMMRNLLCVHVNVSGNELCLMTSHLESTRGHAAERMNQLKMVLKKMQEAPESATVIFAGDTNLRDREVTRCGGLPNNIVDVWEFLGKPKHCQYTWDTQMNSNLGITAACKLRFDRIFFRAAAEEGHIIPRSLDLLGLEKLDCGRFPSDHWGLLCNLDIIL
Put plainly: Recombinant Tdp2 assay. As to conditions: read-out: Enzyme Inhibitory Activity Tdp2 (IC50). Format: biochemical.

The subject of a further data set is OVCAR-3. Put plainly: NCI-60 cytotoxicity, OVCAR-3. As to conditions: Homo sapiens, OVCAR-3, read-out: Cytotoxicity (GI50) Ovarian Ovcar-3.
For a further data set, the system named is SF-539. The data set is described as follows: NCI-60 cytotoxicity, SF-539. The following applies: Homo sapiens, SF-539, read-out: Cytotoxicity (GI50) CNS SF-539.
A further data set concerns HOP-62. The data set is described as follows: NCI-60 cytotoxicity, HOP-62. The following applies: Homo sapiens, HOP-62, read-out: Cytotoxicity (GI50) Lung HOP-62.
A further data set deals with T2, Top1 (Homo sapiens, UniProt P11387).
T2 sequence (P11387 1-765): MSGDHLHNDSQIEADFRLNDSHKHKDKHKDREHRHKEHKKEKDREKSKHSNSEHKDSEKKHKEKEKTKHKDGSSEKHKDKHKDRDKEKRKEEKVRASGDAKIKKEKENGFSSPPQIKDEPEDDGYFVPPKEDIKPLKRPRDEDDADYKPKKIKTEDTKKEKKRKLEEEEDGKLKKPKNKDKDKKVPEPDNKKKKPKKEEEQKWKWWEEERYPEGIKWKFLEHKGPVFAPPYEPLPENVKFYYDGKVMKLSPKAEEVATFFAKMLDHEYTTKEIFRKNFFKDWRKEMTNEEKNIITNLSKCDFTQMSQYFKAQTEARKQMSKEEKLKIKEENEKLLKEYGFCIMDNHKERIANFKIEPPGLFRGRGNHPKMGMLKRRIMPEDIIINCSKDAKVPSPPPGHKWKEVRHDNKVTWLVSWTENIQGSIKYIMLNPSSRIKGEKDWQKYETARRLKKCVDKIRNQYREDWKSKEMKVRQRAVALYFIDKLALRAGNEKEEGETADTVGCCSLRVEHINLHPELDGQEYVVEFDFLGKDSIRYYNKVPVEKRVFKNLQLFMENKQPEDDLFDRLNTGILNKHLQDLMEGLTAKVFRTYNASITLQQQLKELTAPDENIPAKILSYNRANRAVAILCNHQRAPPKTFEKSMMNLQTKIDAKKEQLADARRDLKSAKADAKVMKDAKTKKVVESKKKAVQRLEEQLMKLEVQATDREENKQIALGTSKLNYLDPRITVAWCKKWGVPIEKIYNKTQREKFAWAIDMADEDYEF
Put plainly: Top1-mediated DNA cleavage assay. Format: biochemical. As to conditions: DNA cleavage relative to 1 μM MJ-III-65 (19) and 1 μM camptothecin (18); Table 2.

The mark [2] stands for this setting: determined in duplicate, Table 2.

The structures appear in SMILES notation. Like-named read-outs stand apart in the source and are kept apart here.

Tdp1, sequence (Q9NUW8 whole entry): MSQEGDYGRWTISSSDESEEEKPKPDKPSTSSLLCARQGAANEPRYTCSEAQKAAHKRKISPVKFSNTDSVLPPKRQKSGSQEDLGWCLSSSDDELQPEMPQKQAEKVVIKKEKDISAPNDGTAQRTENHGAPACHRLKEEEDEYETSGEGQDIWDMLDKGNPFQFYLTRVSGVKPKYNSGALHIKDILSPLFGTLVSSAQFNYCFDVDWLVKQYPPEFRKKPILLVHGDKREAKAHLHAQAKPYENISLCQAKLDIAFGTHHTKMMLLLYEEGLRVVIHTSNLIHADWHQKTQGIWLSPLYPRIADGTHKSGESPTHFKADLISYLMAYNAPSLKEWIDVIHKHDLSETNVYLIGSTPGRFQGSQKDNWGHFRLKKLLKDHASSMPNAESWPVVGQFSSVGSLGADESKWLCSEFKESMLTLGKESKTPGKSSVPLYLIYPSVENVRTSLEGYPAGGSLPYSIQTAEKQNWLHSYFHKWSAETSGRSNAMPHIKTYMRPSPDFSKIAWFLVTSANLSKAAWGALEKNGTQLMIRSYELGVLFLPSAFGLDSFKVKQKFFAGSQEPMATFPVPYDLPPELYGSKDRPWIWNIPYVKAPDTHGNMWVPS
Experimental for recombinant human TDP2: TDP2 reactions were carried out as described previously with the following modifications. […] Reactions were terminated and treated similarly to whole-cell extract and recombinant Tdp1 reactions (see previous paragraph).

As to `CNCCCn1c2c(c3ccc(Cl)cc3c1=O)C(=O)c1cc(OC)cnc1-2` [Compound 16g, 3-Chloro-9-methoxy-6-(3-(methylamino)propyl)-5H-pyrido[3′,2′:4,5]cyclopenta[1,2-c]isoquinoline-5,11(6H)-dione], the melting point is 274 to 275 °C. Also, the 50% growth inhibitory concentration (GI50) with DU-145 stood at 331 nM. Also, the 50% growth inhibitory concentration (GI50) with UACC-62 is 574 nM. Besides, the 50% growth inhibitory concentration (GI50) in the data set with MCF-7 turned out to be 46 nM. The GI50 in data set [1] turned out to be 600 nM. Also, in the data set on SN12C, the GI50 worked out at 1180 nM. Moreover, on Tdp1, the IC50 was determined as 16000 ± 3200 nM. Also, in the data set with HCT-116, the GI50 came to 550 nM. Moreover, the IC50 on recombinant human TDP2 (setting [2]) is over 111000 nM. In addition, the GI50 with OVCAR-3 amounted to 1410 nM. The GI50 in the data set on SF-539 was found to be 730 nM. The concentration for 50% growth inhibition (GI50) with HOP-62 is 220 nM.
For the molecule `COc1cnc2c(c1)C(=O)c1c-2n(CCCNC2=NCCS2)c(=O)c2cc(Cl)ccc12` [Compound 16c, 3-Chloro-6-(3-((4,5-dihydrothiazol-2-yl)amino)propyl)-9-methoxy-5H-pyrido[3′,2′:4,5]cyclopenta[1,2-c]isoquinoline-5,11(6H)-dione], the melting point was 295 to 298 °C. Also, in the data set on DU-145, the 50% growth inhibitory concentration (GI50) was 92 nM. Besides, the 50% growth inhibitory concentration (GI50) in the data set with UACC-62 came out at 95 nM. In addition, the GI50 in the data set with MCF-7 came to 36 nM. Further, the GI50 in data set [1] worked out at 390 nM. On Tdp1, the IC50 was 11900 ± 3900 nM. The “Enzyme Inhibitory Activity Top1” value on Top1 is “++”. Also, the GI50 in the data set with HCT-116 came out at 350 nM. The IC50 on recombinant human TDP2 was 32900 ± 5700 nM. In the data set on OVCAR-3, the GI50 was determined as 1300 nM. Further, the GI50 in the data set on SF-539 stood at 470 nM. The concentration for 50% growth inhibition (GI50) in the data set with HOP-62 turned out to be 42 nM.
`COc1cnc2c(c1)C(=O)c1c-2n(CCCNC2=NCCS2)c(=O)c2cc(F)ccc12` [Compound 17c, 6-(3-((4,5-Dihydrothiazol-2-yl)amino)propyl)-3-fluoro-9-methoxy-5H-pyrido[3′,2′:4,5]-cyclopenta-[1,2-c]isoquinoline-5,11(6H)-dione] came in with a melting point of 226 to 250 °C. In the data set on DU-145, the concentration for 50% growth inhibition (GI50) was 144 nM. Also, the GI50 in the data set on UACC-62 was determined as 344 nM. The GI50 in the data set on MCF-7 came to 33 nM. Besides, the 50% growth inhibitory concentration (GI50) in data set [1] was found to be 269 nM. Also, in the data set on SN12C, the GI50 amounted to 238 nM. At Tdp1, the IC50 was over 111000 nM. Further, the “Enzyme Inhibitory Activity Top1” value at Top1 was “++”. The GI50 in the data set on HCT-116 was found to be 82 nM. Further, at recombinant human TDP2, the IC50 came to 61600 ± 14000 nM. The GI50 in the data set on OVCAR-3 was determined as 567 nM. Besides, in the data set with SF-539, the 50% growth inhibitory concentration (GI50) came to 305 nM. Moreover, the 50% growth inhibitory concentration (GI50) in the data set with HOP-62 turned out to be 59 nM.
In turn, `COc1cnc2c(c1)C(=O)c1c-2n(CCCN2CCCC2)c(=O)c2cc(F)ccc12` [Compound 17i, 3-Fluoro-9-methoxy-6-(3-(pyrrolidin-1-yl)propyl)-5H-pyrido[3′,2′:4,5]cyclopenta[1,2-c]isoquinoline-5,11(6H)-dione] returned a melting point of 157 to 162 °C. Moreover, the GI50 in the data set on DU-145 turned out to be 211 nM. Besides, in the data set on UACC-62, the GI50 amounted to 471 nM. For the same molecule, the 50% growth inhibitory concentration (GI50) in the data set on MCF-7 is 48 nM. For the same molecule, the 50% growth inhibitory concentration (GI50) in data set [1] came to 288 nM. Besides, in the data set with SN12C, the GI50 came to 241 nM. Further, the IC50 on Tdp1 was over 111000 nM. The “Enzyme Inhibitory Activity Top1” value at Top1 is given as “+++”. Besides, the GI50 with HCT-116 stood at 153 nM. In addition, at recombinant human TDP2 (setting [2]), the IC50 was over 111000 nM. Besides, the 50% growth inhibitory concentration (GI50) with OVCAR-3 came out at 307 nM. Also, the concentration for 50% growth inhibition (GI50) in the data set with SF-539 is 360 nM. Further, the GI50 in the data set with HOP-62 stood at 212 nM.
In turn, `CNCCCn1c2c(c3ccc(F)cc3c1=O)C(=O)c1cc(OC)cnc1-2` [Compound 17g, 3-Fluoro-9-methoxy-6-(3-(methylamino)propyl)-5H-pyrido[3′,2′:4,5]cyclopenta[1,2-c]isoquinoline-5,11(6H)-dione] yielded a melting point of 259 to 265 °C. The GI50 in the data set on DU-145 was 202 nM. Moreover, the 50% growth inhibitory concentration (GI50) with UACC-62 amounted to 608 nM. For the same molecule, in the data set on MCF-7, the concentration for 50% growth inhibition (GI50) was 34 nM. The GI50 in data set [1] came out at 245 nM. For the same molecule, the GI50 with SN12C was 211 nM. For the same molecule, the concentration for half-maximal inhibition (IC50) at Tdp1 is over 111000 nM. For the same molecule, on Top1, the “Enzyme Inhibitory Activity Top1” value is given as “+”. For the same molecule, in the data set with HCT-116, the GI50 worked out at 143 nM. Moreover, the IC50 at recombinant human TDP2 (setting [2]) came out at 108000 ± 3000 nM. Besides, the GI50 in the data set on OVCAR-3 was 263 nM. In the data set with SF-539, the concentration for 50% growth inhibition (GI50) is 368 nM. For the same molecule, the 50% growth inhibitory concentration (GI50) with HOP-62 came to 142 nM.
On to `COc1cnc2c(c1)C(=O)c1c-2n(CCCNC(C)C)c(=O)c2cc(F)ccc12` [Compound 17f, 3-Fluoro-6-(3-(isopropylamino)propyl)-9-methoxy-5H-pyrido[3′,2′:4,5]cyclopenta[1,2-c]isoquinoline-5,11(6H)-dione], for which the melting point lay in the range of 285 to 292 °C. Also, the GI50 in the data set on DU-145 stood at 210 nM. Moreover, the concentration for 50% growth inhibition (GI50) with UACC-62 was determined as 271 nM. The GI50 with MCF-7 was determined as 31 nM. Further, the concentration for 50% growth inhibition (GI50) in data set [1] is 165 nM. Moreover, the GI50 in the data set with SN12C worked out at 164 nM. The IC50 on Tdp1 was over 111000 nM. The “Enzyme Inhibitory Activity Top1” value at Top1 was “++”. Further, the GI50 in the data set with HCT-116 turned out to be 93 nM. Further, the IC50 on recombinant human TDP2 (setting [2]) was over 111000 nM. The concentration for 50% growth inhibition (GI50) in the data set with OVCAR-3 was determined as 190 nM. Besides, the GI50 in the data set on SF-539 came to 248 nM. Also, in the data set on HOP-62, the GI50 amounted to 107 nM.
